Read-outs that look alike come from different tables or passages of the source.
Key:
[1] = Permeability of C66 (previous studies); format: in vitro ADME
[2] = Solubility of C66 in buffer solutions of different pH (37° C. shaker 24 hours, HPLC); format: physicochemical; settings: buffer solutions pH 1.0, 1.2, 2.0, 4.0, 5.0, 6.0, 6.8, 7.4
Procedure: In addition, the inventors also prepared a series of buffer solutions (pH 1.0, pH 1.2, pH 2.0, pH 4.0, pH 5.0, pH 6.0, pH 6.8, and pH 7.4) according to the recommended conditions of the Pharmacopoeia, to investigate the solubility of C66 under different pH conditions. Excess C66 powder was added to each of the solutions to obtain a mixture, the mixture was shaken in a 37° C. shaker for 24 hours. The C66 concentration was then measured using high-performance liquid chromatography.

[3] = Solubility of C66 in solvents (Table 1); format: physicochemical
[4] = Saturated concentration of C66 in SDS and Tween 80 solutions; format: physicochemical
Source text: The inventors also investigated the solubility of C66 in sodium dodecyl sulfate (SDS) and Tween 80 (T80). According to the recommended usage of surfactants specified in Handbook of Pharmaceutical Excipients, and recommendations from the National Medical Products Administration of China and the U.S. Food and Drug Administration (FDA), a proportion of surfactants in the solution is 1%-3%.

in vivo = settings: male, Beagle, dog
Procedure: (§3) 6 male Beagle dogs (with a weight of 8.00-8.62 kg per dog) that passed the quarantine were selected and divided into 2 groups by weight according to a completely random method, that is, oral administration group, and intravenous injection group, with 3 dogs in each group, and single gavage administration were given. The dogs were subjected to fasting but not water deprivation 12 hours before administration, and were provided with food 4 hours after administration, with free access to water. For the oral administration group, 1% sodium carboxymethyl cellulose (CMC-Na) was mixed with C66 substance to prepare a 0.6 mg/mL suspension for gavage. For the intravenous injection group, a required amount of C66 substance was weighed and dissolved in a solution containing 5% DMSO+10% polyethylene glycol-15 hydroxystearate+85% (20% 2-hydroxypropyl-β-cyclodextrin) to prepare a 1 mg/mL clear solution. Blood samples were collected at different time points after administration, and a concentration of C66 in the blood samples were detected by a liquid chromatograph mass spectrometer to obtain a drug concentration-time curve.
(§4) Plasma samples were analyzed using an AB Sciex 5500 (LC-MS/MS) with an electrospray ionization source (ESI), and monitored with a multiple reaction monitoring (MRM) scanning method in a positive ion mode. A gradient elution was performed with 0.1% formic acid aqueous solution-acetonitrile as a mobile phase. Unknown samples were subjected to protein precipitation using methanol before injection, with a flow rate of 0.3 mL/min. Chromatographic column: Kinetex® 1.7 μm, XB-C18 2.1*100 mm. Guard column: Phenomenex UHPLC C18 2.1 mm. A linear range of C66 was 1.000-288.0 ng/ml, with a lower limit of quantitation of 1.000 ng/mL.
(§5) The dogs were subjected to fasting but not water deprivation 12 hours before administration, and were provided with food 4 hours after administration, with free access to water.
(§6) For the oral administration groups, the blood collection time points were before administration and 15 min, 30 min, 45 min, 1 hour, 2 hours, 3 hours, 4 hours, 6 hours, 8 hours, 10 hours and 24 hours after administration, and 0.5-1.0 mL of blood were collected from a small saphenous vein outside a hind limb or a cephalic vein inside a forelimb, and placed into a heparin sodium anticoagulation tube. For the Intravenous injection group, the blood collection time points were before administration and 5 min, 15 min, 30 min, 45 min, 1 hour, 2 hours, 3 hours, 4 hours, 8 hours, 10 hours and 24 hours after administration, and 0.5-1.0 mL of blood were collected from a small saphenous vein outside a hind limb or a cephalic vein inside a forelimb, and placed into a heparin sodium anticoagulation tube. Main pharmacokinetic parameters such as AUC0-t, AUC0-∞, and t1/2 were calculated using a Phoenix WinNonlin 8.0 software.
(§7) Oral administration group 1: A required amount of C66 substance was weighed, and an appropriate amount of 1% CMC-Na was added to prepare a 0.6 mg/mL suspension.
(§8) Oral administration group 2: A required amount of C66 solid dispersion was weighed, and an appropriate amount of 1% CMC-Na was added to prepare a 0.6 mg/mL suspension.
(§9) Intravenous injection group: A required amount of C66 substance was weighed and dissolved in a solution containing 5% DMSO+10% polyethylene glycol-15 hydroxystearate+85% (20% 2-hydroxypropyl-β-cyclodextrin) to prepare a 1 mg/mL clear solution.

[5] = Content determination after acceleration storage; format: physicochemical; settings: C66 substance Batch C66-S-ZS-03-09, comparison
Procedure: (§1) Acceleration test conditions: aluminum foil bag packaging, sealed, 40±2° C., 75%±5% RH, sample placement;
(§2) Samples: Solid dispersions obtained in Examples 1, 2, and 3.

[6] = male, Beagle, dog, in vivo
Procedure: as §3, §4, §5, §6, §7, §8, §9

[7] = Related substances after acceleration storage; format: physicochemical; settings: C66 substance Batch C66-S-ZS-03-09, comparison
Procedure: as §1, §2

[8] = Cumulative dissolution of pulverized C66 substance in surfactant aqueous solutions; format: physicochemical; settings: 60 min
Procedure: None of them reached the quality control requirement that the cumulative dissolution rate could be equal to or greater than 85% in 30 min-60 min.

permeability [1]: good
solubility under different pH conditions [2]: not dissolved
Solubility of C66 ([3]; Ethanol (95%)): Slightly soluble
Solubility of C66 ([3]; Hydrochloric acid solution with a pH of 1.0): Almost insoluble or insoluble
Solubility of C66 ([3]; Phosphate buffer with a pH of 6.8): Almost insoluble or insoluble
Solubility of C66 ([3]; Purified water): Almost insoluble or insoluble
water solubility ([3]; previous studies): poor
Saturated concentration of C66 ([4]; 1% SDS solution): 5.158 µg/mL
Saturated concentration of C66 ([4]; 1% Tween 80 solution): 1.410 µg/mL
Saturated concentration of C66 ([4]; 2% SDS solution): 9.046 µg/mL
Saturated concentration of C66 ([4]; 2% Tween 80 solution): 3.385 µg/mL
Saturated concentration of C66 ([4]; 3% SDS solution): 22.484 µg/mL
Saturated concentration of C66 ([4]; 3% Tween 80 solution): 15.231 µg/mL
AUC(0-t) (in vivo; iv, 1 mg/kg, AUC0-t): 162 ng·h/mL
AUC(0-t) (in vivo; iv, 1 mg/kg, AUC0-t Mean): 148 ng·h/mL
AUC(0-inf) (in vivo; iv, 1 mg/kg, AUC0-∞): 163 ng·h/mL
AUC(0-inf) (in vivo; iv, 1 mg/kg, AUC0-∞ Mean): 149 ng·h/mL
Cmax (in vivo; iv, 1 mg/kg, Cmax): 334 ng/mL
Cmax (in vivo; iv, 1 mg/kg, Cmax Mean): 348 ng/mL
MRT last (in vivo; iv, 1 mg/kg, MRTlast): 41 min
MRT last (in vivo; iv, 1 mg/kg, MRTlast Mean): 35.9 min
Tmax (in vivo; iv, 1 mg/kg, Tmax): 4.98 min
Tmax (in vivo; iv, 1 mg/kg, Tmax Mean): 4.98 min
half-life (in vivo; iv, 1 mg/kg, half-life (t1/2)): ~30 min
half-life (in vivo; iv, 1 mg/kg, t1/2): 33.7 min
half-life (in vivo; iv, 1 mg/kg, t1/2 Mean): 30.4 min
AUC(0-t) (in vivo; po, 3 mg/kg, AUC0-t Mean): 31.8 ng·h/mL
AUC(0-inf) (in vivo; po, 3 mg/kg, AUC0-∞ Mean): 35.8 ng·h/mL
Cmax (in vivo; po, 3 mg/kg, Cmax Mean): 15.8 ng/mL
MRT last (in vivo; po, 3 mg/kg, MRTlast): 113 min
MRT last (in vivo; po, 3 mg/kg, MRTlast Mean): 103 min
Tmax (in vivo; po, 3 mg/kg, Tmax): 120 min
Tmax (in vivo; po, 3 mg/kg, Tmax Mean): 90 min
half-life (in vivo; po, 3 mg/kg, half-life (t1/2)): ~60 min
half-life (in vivo; po, 3 mg/kg, t1/2 Mean): 53.5 min
Tmax (in vivo; po, 3 mg/kg, time to reach peak concentration (Tmax)): ~60 min
Content [5]: 98.5%
Absolute bioavailability (AUC0-t) [6]: 7.16%
ratio of AUC0-t to AUC0-∞ ([6]; iv, 1 mg/kg): 99%
Relative bioavailability (AUC0-t) ([6]; po, 3 mg/kg): 15.02%
ratio of AUC0-t to AUC0-∞ ([6]; po, 3 mg/kg): 88%
Isomer [7]: 0.038%
Other largest unknown impurities [7]: 0.025%
Process impurities 1 [7]: 0.188%
Process impurities 2 [7]: 0.385%
cumulative dissolution rate ([8]; 3% sodium dodecyl sulfate aqueous solution, particle size D0.9<15 μm): 25.3%
maximum cumulative dissolution rate ([8]; different concentrations of CTAB aqueous solution): 18.9%
cumulative dissolution rate ([8]; different concentrations of triton X-100 aqueous solution): 26.3%
SMILES: O=C1/C(=C/c2ccccc2C(F)(F)F)CCC/C1=C\c1ccccc1C(F)(F)F [Example C66]

Reference: patent US20260151354A1, “SOLID DISPERSION OF CURCUMIN DERIVATIVE METHOD FOR PREPARING SAME, AND USE THEREOF” (WENZHOU MEDICAL UNIVERSITY, priority 2022, published 2026)
